Reference: publication PMC6844273, “Platinum(IV) dihydroxido diazido N-(heterocyclic)imine complexes are potently photocytotoxic when irradiated with visible light” (Chemical Science, 2019)
Entries after “also recorded” stand apart in the source; their conditions may differ. Read-outs that look alike come from different tables or passages of the source. Marks after values point to notes of the source that are not given here.

Tests used:
[1] = test system: human ovarian (A2780) cancer cell line; assay: Phototoxicity / dark cytotoxicity, neutral red uptake assay, A2780; settings: for PI (phototoxic index): ratio of cytotoxicity following irradiation (420 nm) vs. in the dark
Procedure: (§1) The novel trans-di-(N-heterocyclic)imine dihydroxido diazido Pt^IV complexes Pt^IV complexes were evaluated against human ovarian (A2780), cisplatin-resistant ovarian (A2780cis) and oesophageal (OE19) cancer cell lines, and the previously reported compounds (FM165 and 3) were also evaluated for comparison. […]
(§2) controller and 3 UVA lamps (Hitachi, λmax = 361 nm) or 6 Luzchem LZC-420 lamps (λmax = 420 nm) with no other sources of light filtration, or LED light sources (BASETech model no. SP-GU10 230V~50 Hz […]
(§3) Maintenance. Human ovarian carcinoma (A2780), cisplatin-resistant ovarian carcinoma (A2780CIS) and oesophageal adenocarcinoma (OE19) cells were maintained in RPMI medium containing 10% Foetal Calf Serum (FCS). Cell lines were obtained from the European Collection of Animal Cell Cultures (ECACC). Cells were maintained in antibiotic-free medium in a humidified atmosphere of 95% air: 5% CO2 and subcultured every 7-10 days. Mycoplasma checks were done using the Hoechst staining method. Cells were seeded into dishes the night before experiments at a density of 6 - 7×10^4 cells.cm-2.
(§4) Experiments were carried out in an adapted laboratory with ambient light levels kept below 1 lux […]
(§5) Irradiation. Cells were irradiated by a bank of TL03 light sources (λmax 420 nm), filtered to attenuate wavelengths below 400 nm. Irradiances, dosimetry and calibrations were traceable to the National Physical Laboratory.12 Monochromatic light irradiation of the sample was performed using equipment consisting of a 1600W xenon arc light source and a grating monochromator. The apparatus was set to irradiate monochromatic light at 365, 400, 430, 500 and 530 nm. Filters were used to eliminate second order diffraction of shorter wavelengths from the specified longer wavelength monochromatic light.13 Cells were irradiated in stirred suspension. Sham irradiated cells were treated identically to the test cells but were covered during irradiation.
(§6) Treatment. Test compounds were prepared in Earle’s Balanced Salt Solution (EBSS) and filtered immediately before use. Photofrin was used as the positive control for visible light irradiation. The positive and negative controls were included on each plate in parallel with the complexes. Cell viability […]
(§7) Cells were treated for 1 h at 37 °C/5% CO2 with EBSS containing the test compound, and then irradiated with 5 J.cm-2 visible radiation.
(§8) Phototoxic Index and Wavelength-Dependence. The phototoxic Index (PI) was determined 24 h after irradiation using the neutral red uptake assay;14 following cell uptake the neutral red dye accumulates in lysosomes, the low pH in the lysosomal matrix of live cells causes the dye to becomes charged, allowing it to be retained in this organelle.15 The dye was then extracted from the cells upon solubilisation and quantified. Protocol: a stock solution of neutral red was prepared in water (4 mg. mL-1) and diluted 80-fold in the cell culture medium (RPMI). Prior to addition to the cells, the solution was heated to 37 °C and filtered (no. 1 Whatman paper). The growth medium was removed from the cells, the neutral red dye (100 μL) was added and the cells are incubated for 3 hours in the dark. Upon removal of the dye, the cells were rinsed with PBS (100 μL) and then the plates were shaken for 15 min with […] for solubilisation. The dye concentration was quantified by measuring the absorbance at […]. An IC50 value was determined and is defined as the concentration required to inhibit dye uptake by 50%. This was done using non-linear regression (Graphpad Prism). Goodness of fit was determined from the R2 values of the curves and 95% confidence intervals. All cell experiments were performed in triplicate and repeated independently a minimum of two times.

[2] = test system: cisplatin-resistant ovarian (A2780cis) cancer cell line; assay: Phototoxicity / dark cytotoxicity, neutral red uptake assay, A2780cis; settings: for PI (phototoxic index): ratio of cytotoxicity following irradiation (420 nm) vs. in the dark; for IC50: read-out: IC50 (phototoxicity), blue light 420 nm, 5 J cm^–2, TL03, filtered <400 nm
Procedure: as §1, §3, §4
(§9) Irradiation. Cells were irradiated by a bank of TL03 light sources (λmax 420 nm), filtered to attenuate wavelengths below 400 nm. Irradiances, dosimetry and calibrations were traceable to the National […]
(§10) Cells were irradiated in stirred suspension. Sham irradiated cells were treated identically to the test cells but were covered during irradiation.
as §6, §7, §8

[3] = type: physicochemical; settings: water, 20 °C
[4] = test system: A2780, A2780cis and OE19 cancer cell lines; settings: for Dark toxicity: absence of irradiation, cell lines investigated; for IC50: read-out: IC50 in the absence of irradiation, dark, non-toxic defined as IC50 > 200 μM
Procedure: as §1, §3, §4, §9, §10, §6, §7, §8

[5] = Photodecomposition in H2O (loss of N3→Pt LMCT band) by UV-vis spectroscopy; type: physicochemical; settings: 60 μM in H2O, blue light 463 nm, 57 mW cm^–2, UV-vis
Procedure: Solutions of the Pt^IV diazido complexes (60 μM, H2O) were irradiated with blue light (463 nm, 57 mW cm^–2). […] The data were fitted to y = y0 + Ae^Rox, with r^2 > 0.98 (Fig. 7).
Figure S2: Changes in UV-Vis spectra of the PtIV diazido complexes (60 μM in H2O) upon irradiation
Table S11. Decomposition half-lives of complexes (60 μM) when irradiated with blue (463 nm) light,
as measured by UV-Vis spectroscopy.
(1 picture or pasted object on this page, not shown here)

[6] = test system: oesophageal (OE19) cancer cell line; assay: Phototoxicity / dark cytotoxicity, neutral red uptake assay, OE19; settings: for PI (phototoxic index) / IC50: OE19; for PI (phototoxic index): ratio of cytotoxicity following irradiation (420 nm) vs. in the dark; for IC50: read-out: IC50 (phototoxicity), blue light 420 nm, 5 J cm^–2, TL03, filtered <400 nm
Procedure: as §1, §2, §3, §4, §5, §6, §7, §8

[7] = test system: human ovarian (A2780) cancer cell line; settings: cited from earlier work; for IC50: read-out: IC50 (phototoxicity); for Dark toxicity: A2780, absence of irradiation
[8] = test system: cisplatin-resistant ovarian (A2780cis) cancer cell line; settings: read-out: IC50 (phototoxicity), cited from earlier work
[9] = test system: oesophageal (OE19) cancer cell line; parameters: method as in PMID 23733242; settings: OE19, 420 nm irradiation; read-out: IC50 (phototoxicity); cited from earlier work
[10] = test system: A2780, A2780cis and OE19 cancer cell lines; parameters: method as in PMID 23733242; settings: dark; read-out: IC50 in the absence of irradiation; cited from earlier work
[11] = read-out: IC50 (phototoxicity), A2780, blue light 420 nm, 5 J cm^–2, TL03, filtered <400 nm, 1 h treatment, read 24 h after irradiation

## trans,trans,trans-[Pt(N3)2(OH)2(1-methylimidazole)2] [Complex 32]
[1]; A2780
  PI (phototoxic index): >3.7
[1]; [11]
  IC50: 56.3 µM
[2]
  PI (phototoxic index): >1.3
  IC50: 164 µM
[3]
  Maximum aqueous solubility: 82 mM
[4]
  Dark toxicity: non-toxic in the absence of irradiation
  IC50: > 200 µM

## trans,trans,trans-[Pt(N3)2(OH)2(2-picoline)(pyridine)] [Complex 18]
[1]; A2780, 420 nm
  Phototoxicity, fold less phototoxic than 26: ~7 fold
[1]; A2780
  PI (phototoxic index): 7.3 ^d
[1]; [11]
  IC50: 14.5 µM
[2]
  PI (phototoxic index): 5.3 ^d
  IC50: 15.5 µM

## trans,trans,trans-[Pt(N3)2(OH)2(3-picoline)2] [Complex 23]
[1]; A2780
  PI (phototoxic index): >27.8
[1]; [11]
  IC50: 7.2 µM
[2]
  PI (phototoxic index): >19.3
  IC50: 10.4 µM
[3]
  Maximum aqueous solubility: 3 mM
[5]
  Decomposition half-life t1/2: 26 min
[4]
  IC50: > 200 µM

## trans,trans,trans-[Pt(N3)2(OH)2(3-picoline)(pyridine)] [Complex 19]
[1]; A2780
  PI (phototoxic index): >51.5
[1]; [11]
  IC50: 4 µM
[2]
  PI (phototoxic index): >71.0
  IC50: 3.3 µM
[6]
  PI (phototoxic index): >38
  IC50: 5.5 µM
[4]
  IC50: > 200 µM

## trans,trans,trans-[Pt(N3)2(OH)2(4-picoline)2] [Complex 26]
[1]; [11]
  IC50: 2.1 µM
[2]
  IC50: 4.1 µM
[6]
  IC50: 8.2 µM
[5]
  Decomposition half-life t1/2: 25 min
[4]
  IC50: > 200 µM

## trans,trans,trans-[Pt(N3)2(OH)2(4-picoline)(pyridine)] [Complex 20]
[1]; A2780, green light 515 nm
  Phototoxicity with green light: no phototoxicity
[1]; A2780
  PI (phototoxic index): >38
[1]; [11]
  IC50: 5.4 µM
[2]
  PI (phototoxic index): >45
  IC50: 4.6 µM
[6]; OE19, green light 515 nm
  Phototoxicity with green light: no phototoxicity
[6]
  PI (phototoxic index): >17
  IC50: 12.3 µM
[4]
  IC50: > 200 µM

## trans,trans,trans-[Pt(N3)2(OH)2(NH2CH3)(thiazole)]
[7]; A2780, 420 nm irradiation
  IC50: 28.2 µM
[8]; 420 nm irradiation
  IC50: 6.4 µM
[9]
  IC50: 19.3 µM
[10]
  IC50: > 233 µM

## trans,trans,trans-[Pt(N3)2(OH)2(NH3)(py)] [FM165, reference compound]
[1]; A2780
  PI (phototoxic index): >9.6
[1]; [11]
  IC50: 25.4 µM
[7]
  Dark toxicity: non-toxic in the absence of irradiation
[7]; A2780, visible light 420 nm
  IC50: 25.4 µM

## trans,trans,trans-[Pt(N3)2(OH)2(thiazole)2] [Complex 29]
[1]; A2780, absence of irradiation
  Dark toxicity: some dark toxicity
[1]; [11]
  IC50: 2.4 µM
[1]; read-out: IC50 in the absence of irradiation, A2780, dark
  IC50: 115 µM
[2]; absence of irradiation
  Dark toxicity: no toxicity; also recorded: without any dark toxicity
[2]
  PI (phototoxic index): >71.0
  IC50: 2.9 µM
[6]; OE19, absence of irradiation
  Dark toxicity: no toxicity; also recorded: without any dark toxicity
[6]
  PI (phototoxic index): >27
  IC50: 7.6 µM
[3]
  Maximum aqueous solubility: 1 mM
[5]
  Decomposition half-life t1/2: 17 min
[4]
  Dark toxicity: toxic towards cells in the absence of irradiation
[4]; all three cell lines, 420 nm
  Phototoxicity, fold greater than thiazole complex (tz, methylamine): at least 2 fold

## trans,trans,trans-[Pt(OH)2(N3)2(py)2] [Complex 3, reference compound]
[1]; A2780
  PI (phototoxic index): >45
[1]; [11]
  IC50: 6.7 µM
[6]
  PI (phototoxic index): >45
  IC50: 8.4 µM
[3]
  Maximum aqueous solubility: 34 mM
[5]
  Decomposition half-life t1/2: 22 min
[7]; A2780, UVA irradiation
  IC50: 1.4 µM
[7]
  Dark toxicity: non-toxic in the absence of irradiation
[7]; A2780, visible light 420 nm
  IC50: 6.7 µM
[8]; UVA irradiation
  IC50: 14.5 µM
